Results as given in ChEMBL document CHEMBL4219117, “Chemical synthesis of an indomethacin ester prodrug and its metabolic activation by human carboxylesterase 1” (Bioorg Med Chem Lett, 2018).

T1: Liver carboxylesterase 1 (Homo sapiens, UniProt P23141)
T1 sequence (P23141 whole entry): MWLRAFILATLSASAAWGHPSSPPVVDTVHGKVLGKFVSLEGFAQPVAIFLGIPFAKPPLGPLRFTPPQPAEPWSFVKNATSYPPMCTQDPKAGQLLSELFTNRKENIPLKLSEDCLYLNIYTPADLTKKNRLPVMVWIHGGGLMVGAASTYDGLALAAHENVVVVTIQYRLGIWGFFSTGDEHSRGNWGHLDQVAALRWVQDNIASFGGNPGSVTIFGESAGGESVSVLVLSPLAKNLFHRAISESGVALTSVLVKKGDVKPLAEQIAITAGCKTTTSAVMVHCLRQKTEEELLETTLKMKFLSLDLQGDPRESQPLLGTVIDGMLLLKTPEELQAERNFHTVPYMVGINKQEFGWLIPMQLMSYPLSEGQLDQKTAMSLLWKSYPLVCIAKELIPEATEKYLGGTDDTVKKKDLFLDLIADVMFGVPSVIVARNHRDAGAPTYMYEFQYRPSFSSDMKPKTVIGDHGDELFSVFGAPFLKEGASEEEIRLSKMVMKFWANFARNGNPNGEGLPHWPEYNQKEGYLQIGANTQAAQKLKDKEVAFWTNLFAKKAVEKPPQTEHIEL


How the values were obtained:
Liver carboxylesterase 1 [1] = molecular target: T1, Liver carboxylesterase 1; test: Prodrug activation assessed as human carboxylesterase 1b-mediated indomethacin formation by measuring intrinsic clearance per mg protein at 0.003125 to 0.10 mM after 30 to 180 mins by HPLC based Michaelis-Menten plot analysis; details: isolated protein, 100 µM
Liver carboxylesterase 1 [2] = molecular target: T1, Liver carboxylesterase 1; test: Prodrug activation in human liver microsomes assessed as carboxylesterase 1-mediated indomethacin formation at 0.25 mM after 30 to 1440 mins by HPLC analysis; details: 250 µM
Liver carboxylesterase 1 [3] = molecular target: T1, Liver carboxylesterase 1; test: Prodrug activation in human intestine microsomes assessed as carboxylesterase 1-mediated indomethacin formation at 0.25 mM after 30 to 1440 mins by HPLC analysis; details: 250 µM
[4] = substrate: CCCCSC(=O)Cc1c(C)n(C(=O)c2ccc(Cl)cc2)c2ccc(OC)cc12; test: (§1) Prodrug activation assessed as human carboxylesterase 1b-mediated indomethacin formation at 0.003125 to 0.10 mM after 30 to 180 mins by HPLC based Michaelis-Menten plot analysis
[5] = substrate: CC[C@@H](C)OC(=O)Cc1c(C)n(C(=O)c2ccc(Cl)cc2)c2ccc(OC)cc12; test: as §1
[6] = substrate: CCCCOC(=O)Cc1c(C)n(C(=O)c2ccc(Cl)cc2)c2ccc(OC)cc12; test: as §1
[7] = substrate: COc1ccc2c(c1)c(CC(=O)OCC(C)(C)C)c(C)n2C(=O)c1ccc(Cl)cc1; test: as §1
[8] = substrate: CC[C@@H](OC(=O)Cc1c(C)n(C(=O)c2ccc(Cl)cc2)c2ccc(OC)cc12)c1ccccc1; test: as §1
[9] = substrate: COc1ccc2c(c1)c(CC(=O)OCC(C)C)c(C)n2C(=O)c1ccc(Cl)cc1; test: as §1
[10] = substrate: CC[C@H](OC(=O)Cc1c(C)n(C(=O)c2ccc(Cl)cc2)c2ccc(OC)cc12)c1ccccc1; test: as §1
[11] = substrate: CC[C@H](C)OC(=O)Cc1c(C)n(C(=O)c2ccc(Cl)cc2)c2ccc(OC)cc12; test: as §1

clearance (Liver carboxylesterase 1 [1]) | Drug metabolism (Liver carboxylesterase 1 [2]) | Drug metabolism (Liver carboxylesterase 1 [3]) | Molecule | also measured
2.1 µL/min/mg | Metabolite_Notdetected | Metabolite_Notdetected | CC[C@H](C)OC(=O)Cc1c(C)n(C(=O)c2ccc(Cl)cc2)c2ccc(OC)cc12 | 
4.8 µL/min/mg | Metabolite_Notdetected | Metabolite_Notdetected | CC[C@@H](C)OC(=O)Cc1c(C)n(C(=O)c2ccc(Cl)cc2)c2ccc(OC)cc12 | 
89 µL/min/mg | Metabolite_Detected | Metabolite_Detected | COc1ccc2c(c1)c(CC(=O)OCC(C)C)c(C)n2C(=O)c1ccc(Cl)cc1 | 
380 µL/min/mg | Metabolite_Detected | Metabolite_Detected | CCCCSC(=O)Cc1c(C)n(C(=O)c2ccc(Cl)cc2)c2ccc(OC)cc12 | 
 | Metabolite_Notdetected | Metabolite_Notdetected | COc1ccc2c(c1)c(CC(=O)OC(C)(C)C)c(C)n2C(=O)c1ccc(Cl)cc1 | 
7 µL/min/mg | Metabolite_Notdetected | Metabolite_Notdetected | CC[C@@H](OC(=O)Cc1c(C)n(C(=O)c2ccc(Cl)cc2)c2ccc(OC)cc12)c1ccccc1 | 
0.3 µL/min/mg | Metabolite_Notdetected | Metabolite_Notdetected | CC[C@H](OC(=O)Cc1c(C)n(C(=O)c2ccc(Cl)cc2)c2ccc(OC)cc12)c1ccccc1 | 
69 µL/min/mg | Metabolite_Detected | Metabolite_Notdetected | COc1ccc2c(c1)c(CC(=O)OCC(C)(C)C)c(C)n2C(=O)c1ccc(Cl)cc1 | 
340 µL/min/mg | Metabolite_Detected | Metabolite_Detected | CCCCOC(=O)Cc1c(C)n(C(=O)c2ccc(Cl)cc2)c2ccc(OC)cc12 | 
 |  |  | Liver carboxylesterase 1 (Homo sapiens) (protein) MWLRAFILATLSASAAWGHPSSPPVVDTVHGKVLGKFVSLEGFAQPVAIFLGIPFAKPPLGPLRFTPPQPAEPWSFVKNATSYPPMCTQDPKAGQLLSELFTNRKENIPLKLSEDCLYLNIYTPADLTKKNRLPVMVWIHGGGLMVGAASTYDGLALAAHENVVVVTIQYRLGIWGFFSTGDEHSRGNWGHLDQVAALRWVQDNIASFGGNPGSVTIFGESAGGESVSVLVLSPLAKNLFHRAISESGVALTSVLVKKGDVKPLAEQIAITAGCKTTTSAVMVHCLRQKTEEELLETTLKMKFLSLDLQGDPRESQPLLGTVIDGMLLLKTPEELQAERNFHTVPYMVGINKQEFGWLIPMQLMSYPLSEGQLDQKTAMSLLWKSYPLVCIAKELIPEATEKYLGGTDDTVKKKDLFLDLIADVMFGVPSVIVARNHRDAGAPTYMYEFQYRPSFSSDMKPKTVIGDHGDELFSVFGAPFLKEGASEEEIRLSKMVMKFWANFARNGNPNGEGLPHWPEYNQKEGYLQIGANTQAAQKLKDKEVAFWTNLFAKKAVEKPPQTEHIEL | Km [4]: 2.1 µM; Vmax [4]: 0.0008 µmol/min; Km [5]: 10.1 µM; Vmax [5]: 4.9e-05 µmol/min; Km [6]: 4.4 µM; Vmax [6]: 0.00151 µmol/min; Km [7]: 4.6 µM; Vmax [7]: 0.000322 µmol/min; Km [8]: 2.9 µM; Vmax [8]: 2.1e-05 µmol/min; Km [9]: 13.7 µM; Vmax [9]: 0.00122 µmol/min; Km [10]: 6.5 µM; Vmax [10]: 2e-06 µmol/min; Km [11]: 48.5 µM; Vmax [11]: 0.000103 µmol/min
